US20060235225A1, “Crystals of 5-[2-amino-4-(2-furyl) pyrimidin-5-yl]-1-methylpyridin-2(1H)-one and processes for preparing the same” (Eisai Co., Ltd., priority 2005, published 2006)

Tests used:
[1] = Stability against light (impurity content by HPLC after storage); format: physicochemical
Experimental: The respective crystals obtained in Example 1 and Comparative Example 2 (the crystal form A and the crystal form B) were stored for 1, 3 and 6 months under conditions of 25° C./1000 Lx (apparatus for light stability test; Nagano Science Co. Ltd) and 25° C./dark (control), and impurity contents were measured by HPLC method to investigate stability against exposure to light for the respective crystals. The conditions for HPLC method are shown below.
(Calculation Method of Impurity Content)
Individual impurity content (%)=(Peak area of individual impurity)/(total of all peak areas)×100
Peaks with impurity contents of 0.05% or greater were recorded as impurity peaks, and their total was recorded as the impurity content of the crystals. Impurity content (%)=Total of individual impurity contents (%)

[2] = Variable-temperature powder X-ray diffraction and DSC (change of crystal form on heating); format: physicochemical
Experimental: The measuring conditions were the same as for the powder X-ray diffraction pattern measurement described above, except for the measuring temperature.
DSC analysis was conducted under the following conditions, using approximately 3 mg each of the crystals obtained in Example 1 and Comparative Example 2 (the crystal form A and the crystal form B). The DSC patterns of the respective crystals are shown in FIG. 6 and FIG. 7 (magnification of 40-230° C.), and the endothermic peaks and exothermic peaks are shown in Table 2. • Measuring apparatus: DSC822^e by Mettler Toledo • Sample pan material: aluminum • Nitrogen gas flow (40 mL/min) • Start temperature: 25° C. • End temperature: 260° C.
Temperature elevating rate: 5° C./min

Impurity content ([1]; 25° C./1000Lx, storage period 1 month, listed as B) [%]	Impurity content ([1]; 25° C./1000Lx, storage period 3 months, listed as B) [%]	Impurity content ([1]; 25° C./1000Lx, storage period 6 months, listed as B) [%]	Impurity content ([1]; 25° C./dark (control), storage period 1 month, listed as B) [%]	Impurity content ([1]; 25° C./dark (control), storage period 3 months, listed as B) [%]	Impurity content ([1]; 25° C./dark (control), storage period 6 months, listed as B) [%]	Impurity content ([1]; Initial, before storage, HPLC, listed as B) [%]	Temperature of transformation to another crystal form (B′) ([2]; heating 30° C. to 260° C.)	Temperature of transformation to the crystal form A ([2]; heating 30° C. to 260° C.)	Impurity content ([1]; 25° C./1000Lx, storage period 1 month, listed as A) [%]	Impurity content ([1]; 25° C./1000Lx, storage period 3 months, listed as A) [%]	Impurity content ([1]; 25° C./1000Lx, storage period 6 months, listed as A) [%]	Impurity content ([1]; 25° C./dark (control), storage period 1 month, listed as A) [%]	Impurity content ([1]; 25° C./dark (control), storage period 3 months, listed as A) [%]	Impurity content ([1]; 25° C./dark (control), storage period 6 months, listed as A) [%]	Impurity content ([1]; Initial, before storage, HPLC, listed as A) [%]	SMILES	Stability against exposure to light (comparison of crystal forms) ([1]; 25° C./1000 Lx, up to 6 months)	Change in crystal form by heating ([2]; sample temperature 30° C. to 260° C.)
0.48	0.52	0.81	0.28	0.25	0.23	0.34	about 90 °C	about 170 °C								Cn1cc(-c2cnc(N)nc2-c2ccco2)ccc1=O [Crystal form B, 5-[2-amino-4-(2-furyl)pyrimidin-5-yl]-1-methylpyridin-2(1H)-one]		
									0.10	0.07	0.08	0.14	0.12	0.12	0.06	Cn1cc(-c2cnc(N)nc2-c2ccco2)ccc1=O [Crystal form A, 5-[2-amino-4-(2-furyl)pyrimidin-5-yl]-1-methylpyridin-2(1H)-one]	more stable against exposure to light than the crystal form B	undergoes no change in crystal form by heating
